Reference: patent publication US11555014B2, “High penetration prodrug compositions of prostaglandins and related compounds” (Techfields Pharma Co., Ltd., priority 2006, dated 2023)

What was measured:
Solubility in water = type: physicochemical
Method: 37.7 g (0.1 mol) of sodium 11,15-dihydroxy-9-oxoprost-13-en-1-oate was dissolved in 100 ml of acetonitrile. 26.1 g (0.1 mol) of 2-Bromo-N,N-diethylethylamine.HBr and 8.6 g of sodium bicarbonate were added into the reaction mixture. The mixture was stirred for overnight at RT. The solvents were evaporated off. 250 ml of ethyl acetate was added into the reaction mixture and the mixture was washed with water (3×100 ml). The organic solution was dried over anhydrous sodium sulfate. Sodium sulfate was removed by filtration. 6 g of acetic acid was added into the reaction mixture with stirring. Hexane (200 ml) was added. The solid product was collected by filtration. After drying, it yielded 42 g of the desired product (81.8%). Hygroscopic product; Solubility in water: 100 mg/ml; Elementary analysis: C28H51NO7; MW: 513.37. Calculated % C, 65.47; H, 10.01; N, 2.73; O, 21.80. Found % C, 65.42; H, 10.03; N, 2.70; O, 21.85.
43.7 g (0.1 mol) of 11,15-diacetoxy-9-oxoprosta-5,13-dien-1-oic acid was dissolved in 300 ml of chloroform. 20.6 g of N,N′-Dicyclohexylcarbodiimide was added into the reaction mixture. 11.7 g of N,N-diethylaminoethylamine was added into the reaction mixture. The mixture was stirred for 3 hours at RT. The solid was removed by filtration. The chloroform solution was washed with 5% NaHCO3 (2×100 ml) and water (3×100 ml). The organic solution was dried over anhydrous sodium sulfate. Sodium sulfate was removed by filtration. 6 g of acetic acid was added into the reaction mixture with stirring. Hexane (200 ml) was added. The solid product was collected by filtration. After drying, it yielded 45 g of the desired product (85.8%). Hygroscopic product; Solubility in water: 100 mg/ml; Elementary analysis: C34H59NO9S; MW: 657.90. Calculated % C, 62.07; H, 9.04; N, 2.13; O, 21.89; S, 4.87. Found % C, 62.02; H, 9.06; N, 2.11; O, 21.95; S, 4.86.
49.9 g (0.1 mol) of 9,11,15-triacetoxyprost-13-en-1-oic acid was dissolved in 300 ml of chloroform. 20.6 g of N,N′-Dicyclohexylcarbodiimide was added into the reaction mixture. 13.1 g of dimethylaminoethyl mercaptan was added into the reaction mixture. The mixture was stirred for 3 hours at RT. The solid was removed by filtration. The chloroform solution was washed with 5% NaHCO3 (2×100 ml) and water (3×100 ml). The organic solution was dried over anhydrous sodium sulfate. Sodium sulfate was removed by filtration. 6 g of acetic acid was added into the reaction mixture with stirring. Hexane (200 ml) was added. The solid product was collected by filtration. After drying, it yielded 45 g of the desired product (85.8%). Hygroscopic product; Solubility in water: 100 mg/ml; Elementary analysis: C32H53NO9; MW: […] Calculated % C, 64.51; H, 8.97; N, 2.35; O, 24.17. Found % C, 64.47; H, 8.99; N, 2.34; O, 24.20.
37.7 g (0.1 mol) of sodium 9,11,15-trihydroxyprosta-5,13-dien-1-oate was dissolved in 100 ml of acetonitrile. 39 g (0.15 mol) of 2-Bromo-N,N-diethylethylamine.HBr in ethyl acetate was added into the reaction mixture. The mixture was stirred for 3 h at RT. Then 8 g of sodium bicarbonate was added into the reaction mixture. The mixture is stirred for another 2 h at RT. The solvents were evaporated off. 250 ml of ethyl acetate was added into the reaction mixture and the mixture was washed with water (3×100 ml). The organic solution was dried over anhydrous sodium sulfate. Sodium sulfate was removed by filtration. 6 g of acetic acid was added into the reaction mixture with stirring. […] Calculated % C, 65.47; H, 10.01; N, 2.73; O, 21.80. […]

[1] = pH 7.4
Method: The penetration rates of HPPs and their parent drugs through human skin were measured in vitro by modified Franz cells. The Franz cells have two chambers, the top sample chamber and the bottom receiving chamber. The human skin tissue (360-400 μm thick) that separates the top and the receiving chambers was isolated from the anterior or posterior thigh areas.
The compound tested (2 mL, 20% in 0.2 M phosphate buffer, pH. 7.4) were added to the sample chamber of a Franz cell. The receiving chamber contains 10 ml of 2% bovine serum albumin in saline which was stirred at 600 rpm. The cumulative amounts of the tested compounds penetrating the skin versus time were determined by high-performance liquid chromatography (HPLC) method.

Question: For `CC(=O)O.CCCCCC(C)(O)C=C[C@H]1C(O)CC(O)[C@@H]1CC=CCCCC(=O)OCCN(CC)CC` (some centres unmarked) [N,N-diethylaminoethyl 9,11,15-trihydroxy-15-methylprosta-5,13-dien-1-oate.AcOH], which Solubility in water (Solubility in water) is on record?
Answer: 100 mg/mL

Question: What about the “In vitro penetration rate (apparent flux), prodrug compounds” value [1] of the same compound?
Answer: 0.80 mg/cm^2/h
